Results as given in US20140099385A1, “INHIBITION OF FATTY ACID AND C[…] BY CARBON MONOXIDE (CO)” (priority 2011, published 2014).

Experiments:
[1] = test system: HuH7 cell; test: Stearic acid and palmitic acid uptake in a cell wherein the PGRMC1 gene is knocked down by siRNA; assay type: cell-based, human; conditions: HuH7 cell transfected with siRNA
Protocol: In the experiment of Example 1, siRNA (sequence: […]) (SEQ ID NO: 1) targeting PGRMC1 was transfected to the cell line HuH7 cell derived from human hepatocellular carcinoma by the lipofection method (Lipofectamin 2000, INVITROGEN Corporation) to knockdown the PGMRMC1 gene. In the same manner as in Example 1, 1% BSA (Wako Pure Chemical Industries, Ltd.) wherein stearic acid (sigma) or palmitic acid was dissolved to give the final concentration of 400 μM was added to the HuH7 cell wherein the PGRMC1 gene was knocked down, and the cell was cultured. The medium was discarded, the cell was washed 3 times with PBS, and Nile Red reagent (sigma) dissolved in PBS on the slide glass so as to be 100 ng/ml was added to react for 5 minutes, thereby staining the fatty acid. Further, the cell was washed 3 times with PBS, DAPI reagent (2 ng/ml; Wako Pure Chemical Industries, Ltd.) was added to react for 5 minutes, thereby staining the nucleus. The nucleus was observed using a fluorescence microscope, whereby Nile Red derived Green fluorescence as the fatty acid and DAPI derived Blue fluorescence were detected. […] On the other hand, when palmitic acid (FIG. 4C) or stearic acid (FIG. 4D) was added to the cell wherein the PGRMC1 gene was knocked down, the margin of blue stained area is not stained green.

[2] = biological target: PGRMC1 (Homo sapiens, UniProt O00264); test: Absorption spectrum of the PGRMC1 protein (CO binding to heme); conditions: FIG. 3
Text: FIG. 3 is the graphs showing the absorption spectrum of the PGRMC1 protein.
Furthermore, PGRMC1 (Progesterone Receptor Membrane associated Component 1) was identified as one of the molecules involved with the inhibition of fatty acid or cholesterol uptake by CO. PGRMC1 is a heme binding protein, and an absorption peak is thought to have appeared at 419 nm because CO bound to the heme of PGRMC1 (FIG. 3). […] Thus, when the PGRMC1 gene was knocked down in a cell, the uptake of a fatty acid was suppressed (FIG. 4).

[3] = 25° C.; cited from earlier work
[4] = test system: HuH7 cell; test: LDL uptake inhibition in a cell by CO (FITC-conjugated LDL, fluorescence microscope); assay type: cell-based, human; conditions: FITC-conjugated LDL 8 mg/ml, 1 μM CO—Ru, 2 hours, FIG. 2
Protocol: After culturing the HuH7 cell in the same manner as above in a dish covered with a slide glass, the medium was discarded, and fluorescence-labeled FITC-conjugated LDL (Molecular Probes) was added to serum free DMEM so as to give the final concentration of 8 mg/ml to carry out the culture for 2 hours (control). Additionally, at the same time with this procedure, 1 μM of CO—Ru was added in the same manner as above to carry out the analysis. After culturing, the medium was discarded, the cell was washed 3 times with PBS and DAPI reagent (2 ng/ml; Wako Pure Chemical Industries, Ltd.) was added to react for 5 minutes. The observation was carried out using a fluorescence microscope, whereby FITC-LDL derived Green fluorescence as the […] and DAPI derived Blue fluorescence were detected. […] On the other hand, in the cell to which CO—Ru was added, the margin of blue stained area is not stained green.

[5] = test system: human hepatoma cell line HuH7 cell; test: Stearic acid uptake inhibition in a cell by CO (Nile Red staining, fluorescence microscope); assay type: cell-based; conditions: 400 μM stearic acid, 1 μM test substance, 12 hours, FIG. 1
Protocol: The human hepatoma cell line HuH7 cell was seeded in a 6-well plate (Iwaki) covered with a slide glass (1 cm^2; matsunami glass) and cultured using DMEM+10% FCS in a CO2 incubator overnight. After the culture, the medium was discarded, 1% BSA (Wako Pure Chemical Industries, Ltd.) wherein stearic acid (sigma) was dissolved in serum free DMEM to give a final concentration of 400 μM was added thereto, and the cell was cultured again for 12 hours in a CO2 incubator. Further, as a CO sustained-release drug, 1 μM of CO—Ru (Sigma CORM2 ([Ru(CO)3Cl2]2)) was used) or 1 μM of ruthenium complex as a control was added together with a fatty acid to carry out the culture. Subsequently, the medium was discarded, the cell was washed 3 times with PBS, and Nile Red reagent (sigma) dissolved in PBS on the slide glass so as to be 100 ng/ml was added to react for 5 minutes, thereby staining the fatty acid. Further, the cell was washed 3 times with PBS, DAPI reagent (2 ng/ml; Wako Pure Chemical Industries, Ltd.) was added to react for 5 minutes, thereby staining the nucleus. The nucleus was observed using a fluorescence microscope, whereby Nile Red derived Green fluorescence as the fatty acid and DAPI derived Blue fluorescence were detected. […]

PGRMC1, sequence (O00264 whole entry, species assumed): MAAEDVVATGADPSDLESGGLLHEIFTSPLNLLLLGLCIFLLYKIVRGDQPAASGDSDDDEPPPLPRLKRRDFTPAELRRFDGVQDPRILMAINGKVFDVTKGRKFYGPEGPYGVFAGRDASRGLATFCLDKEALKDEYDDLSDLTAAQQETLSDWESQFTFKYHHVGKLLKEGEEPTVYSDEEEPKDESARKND

Molecule: siRNA: siRNA (sequence: GAUGUGACCAAAGGCCCGCAAAUUCU) targeting PGRMC1 (listed as RNA, chemistry not given here)
- uptake of palmitic acid in the PGRMC1 knockdown cell ([1]; 400 μM palmitic acid, FIG. 4C): inhibited
- uptake of stearic acid in the PGRMC1 knockdown cell ([1]; 400 μM stearic acid, FIG. 4D): inhibited

Molecule: [C-]#[O+] [CO, carbon monoxide]
- absorption peak on CO binding to the heme of PGRMC1 [2]: 419 nm
- amount of CO that can be dissolved in aqueous solution [3]: about 21.4 mL per liter

Molecule: [C-]#[O+].[C-]#[O+].[C-]#[O+].[C-]#[O+].[C-]#[O+].[C-]#[O+].[Cl][Ru][Cl].[Cl][Ru][Cl] [CO—Ru, [Ru(CO)3Cl2]2]
- uptake of LDL in the cell (FITC-LDL green fluorescence) [4]: the uptake of LDL was inhibited
- uptake of stearic acid in the cell (green Nile Red staining) [5]: the uptake of stearic acid was inhibited
